US12391698B2, “Substituted piperidines and piperazines and methods for the treatment of CNS disorders” (SUVEN LIFE SCIENCES LIMITED, priority 2022, dated 2025)
Structures can show the parent of a compound that is named as a salt. Where two headings read alike, the source gives them in different places.

How the values were obtained:
[1] = molecular target: T1, cloned human 5-HT1A receptor (Homo sapiens, UniProt P08908); assay: Determination of Ki at 5-HT1A receptor (radioligand binding, [3H]-8-Hydroxy DPAT); details: HEK293-EBNA recombinant cells, [3H]-8-Hydroxy DPAT 0.8 nM
T1 construct: expressed in transfected cells; host or cells: HEK293-EBNA
T1 sequence (P08908 1-422): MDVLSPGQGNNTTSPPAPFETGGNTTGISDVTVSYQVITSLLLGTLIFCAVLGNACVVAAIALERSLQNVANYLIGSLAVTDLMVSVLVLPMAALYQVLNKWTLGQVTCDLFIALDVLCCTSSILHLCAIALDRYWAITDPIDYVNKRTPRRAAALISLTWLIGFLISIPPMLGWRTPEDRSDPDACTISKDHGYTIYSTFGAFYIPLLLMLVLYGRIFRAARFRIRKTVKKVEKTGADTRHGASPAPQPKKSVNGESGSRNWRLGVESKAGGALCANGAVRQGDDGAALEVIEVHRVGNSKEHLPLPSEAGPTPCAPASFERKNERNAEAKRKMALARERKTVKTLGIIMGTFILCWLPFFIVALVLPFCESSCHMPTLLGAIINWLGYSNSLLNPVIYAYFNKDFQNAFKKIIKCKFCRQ
Method in brief: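 Membranes from HEK293-EBNA cells expressing recombinant human 5-HT1A were incubated with 0.8 nM [3H]-8-hydroxy-DPAT for 2 h at r.t. in pH 7.4 Tris-HCl buffer with EDTA, MgSO4 and ascorbic acid. Non-specific binding was defined with 0.1 mM U92016A; bound radioactivity after filtration was compared with controls.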

[2] = molecular target: cloned human SERT receptor (Homo sapiens, UniProt P31645); assay: Determination of Ki at SERT receptor (SPA binding, [3H]-Citalopram); details: HEK293 recombinant cells, [3H]-Citalopram 2 nM
cloned human SERT receptor, sequence (P31645 whole entry): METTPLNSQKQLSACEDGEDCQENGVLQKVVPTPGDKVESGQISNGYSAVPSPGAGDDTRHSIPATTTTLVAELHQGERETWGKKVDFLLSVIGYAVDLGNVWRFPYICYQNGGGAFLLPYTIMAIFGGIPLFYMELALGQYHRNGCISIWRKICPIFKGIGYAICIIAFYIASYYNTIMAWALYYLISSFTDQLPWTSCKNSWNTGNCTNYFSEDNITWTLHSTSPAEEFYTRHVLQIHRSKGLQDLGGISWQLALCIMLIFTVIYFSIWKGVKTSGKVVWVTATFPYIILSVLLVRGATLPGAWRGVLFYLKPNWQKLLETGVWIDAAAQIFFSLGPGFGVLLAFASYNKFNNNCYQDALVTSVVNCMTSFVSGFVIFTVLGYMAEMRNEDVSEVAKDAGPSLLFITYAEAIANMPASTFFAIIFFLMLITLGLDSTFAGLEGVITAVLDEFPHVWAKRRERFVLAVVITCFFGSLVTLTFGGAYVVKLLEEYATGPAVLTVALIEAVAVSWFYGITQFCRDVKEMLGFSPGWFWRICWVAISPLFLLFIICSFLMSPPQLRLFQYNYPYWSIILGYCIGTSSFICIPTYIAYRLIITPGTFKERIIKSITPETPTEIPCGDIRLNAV
Method in brief: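 HEK293-expressed human SERT; [3H]-citalopram at 2 nM final, nonspecific binding with 0.1 mM venlafaxine. Incubated 3 h at r.t. in 50 mM Tris-HCl pH 7.4, 150 mM NaCl, 5 mM KCl with SPA beads. Bead-proximal radioactivity compared with control values.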

[3] = Rodent pharmacokinetic study; format: in vivo, Male Wistar rats; details: rat, plasma, mean ± S.D, n = 3; for bioavailability: oral 3 mg/kg vs intravenous 1 mg/kg, read-out: F (Bioavailability)
Protocol: Male Wistar rats (260±50 g) were used as experimental animals. Animals were housed individually in polypropylene cage. Two days prior to study, male Wistar rats were anesthetized with isoflurane for surgical placement of jugular vein catheter. Rats were randomly divided for oral (3 mg/kg) and intravenous (1 mg/kg) dosing (n=3/group) and fasted overnight before oral dosing (p.o.). However, food and water were provided ad libitum to the rats allocated for intravenous dosing.
At pre-determined time points, blood samples were collected through jugular vein and replenished with an equivalent volume of normal saline. Collected blood was transferred into a labeled eppendorf tube containing 10 μL of heparin as an anticoagulant. Typically blood samples were collected at 0.08, 0.25, 0.5, 1, 2, 4, 6, 8, and 24 h post dose. Blood samples were centrifuged at 4000 rpm for 10 min. Plasma was separated and stored frozen at −80° C. until analysis. The concentrations of the test compounds were quantified in plasma by qualified LC-MS/MS method using suitable extraction technique. The test compounds were quantified in the calibration range around 1-1000 ng/mL in plasma. Study samples were analyzed using calibration samples in the batch and quality control samples spread across the batch.
Pharmacokinetic parameters Cmax, AUCt, t1/2. Clearance and Bioavailability (F) were calculated using standard non-compartmental model by using Phoenix WinNonlin 6.0.4 version software package.

[4] = Rodent brain penetration study; format: in vivo; details: rat, po, fed male Wistar rats, 3 mg/kg p.o., mean ± S.D, n = 3, read-out: Rat Brain Penetration (Cbrain/Cplasma) at 3 mg/kg, p.o. @ 1 h
Protocol: Male Wistar rats (260±40 g) were used as experimental animals. Three animals were housed in each cage. Animals were given water and food ad libitum throughout the experiment and maintained on a 12 h light/dark cycle.
Brain penetration was determined in discrete manner in rats. One day prior to dosing, male Wistar rats were acclimatized and randomly grouped according to their body weight. At each time point (0.50, 1 and 2 h), n=3 animals were used.
The test compounds were suitably preformulated and administered orally at (free base equivalent) 3 mg/kg. Blood samples were removed via cardiac puncture under isoflurane anesthesia. The animals were sacrificed to collect brain tissue. Plasma was separated and brain samples were homogenized. Plasma and brain homogenates were stored frozen at −20° C. until analysis. The concentrations of the test compounds in plasma and brain were determined using LC-MS/MS method.
The test compounds were quantified in plasma and brain homogenate by qualified LC-MS/MS method using suitable extraction technique in the calibration range of 1-500 ng/mL. Study samples were analyzed using calibration samples in the batch and quality control samples spread across the batch. Extent of brain-plasma ratio (Cbrain/Cplasma) was calculated.

[5] = molecular target: T2, recombinant rat 5-HT7 receptor (Rattus norvegicus, UniProt P32305); assay: Determination of Kb at 5-HT7 receptor, pCRE-Luc reporter gene assay in CHO cells; format: cell-based
T2 construct: expressed in transfected cells
T2 sequence (P32305 whole entry): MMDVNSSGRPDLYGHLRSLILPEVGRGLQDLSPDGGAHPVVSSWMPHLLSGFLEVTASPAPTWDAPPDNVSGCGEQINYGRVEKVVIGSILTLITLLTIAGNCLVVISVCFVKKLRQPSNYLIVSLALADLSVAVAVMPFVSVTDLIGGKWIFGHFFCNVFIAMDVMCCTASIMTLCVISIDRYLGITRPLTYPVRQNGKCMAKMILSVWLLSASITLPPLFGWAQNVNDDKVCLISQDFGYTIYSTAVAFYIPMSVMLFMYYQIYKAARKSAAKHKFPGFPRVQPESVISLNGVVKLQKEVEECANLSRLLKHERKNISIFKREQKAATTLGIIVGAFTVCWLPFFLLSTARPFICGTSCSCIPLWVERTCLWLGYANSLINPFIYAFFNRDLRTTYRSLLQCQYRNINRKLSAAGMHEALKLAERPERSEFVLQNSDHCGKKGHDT

[6] = intravenous (bolus) 1 mg/kg, male Wistar rats
[7] = oral (gavage) 3 mg/kg, fasted male Wistar rats

Compound | Ki ([1]; read-out: Ki h5-HT1A) [nM] | Ki ([2]; read-out: Ki hSERT) [nM] | AUC(0-t) [3, 6] [ng·h/mL] | clearance [3, 6] [mL/min/kg] | half-life [3, 6] [h] | bioavailability ([3]; male Wistar rats) [%] | AUC(0-t) [3, 7] [ng·h/mL] | Cmax [3, 7] [ng/mL] | half-life [3, 7] [h] | Kp at 1 h ([4]; brain/plasma) | agonist activity at rat recombinant 5-HT7 receptor [5] | Ki ([1]; Ki h5-HT1A) [nM] | Ki ([2]; Ki hSERT) [nM] | Kp at 1 h ([4]; in vivo)
O=C1C[C@@H]2CCCN2C(=O)N1CCCCN1CCN(c2nsc3ccccc23)CC1 [Example 2, 2-[4-(4-Benzo[d]isothiazol-3-yl-piperazin-1-yl)-butyl]-tetrahydro-pyrrolo[1,2-c]pyrimidine-1,3-dione oxalate] | 0.06 | 1060 | 544 ± 19 | 30 ± 1 | 2 ± 0.7 | 15 ± 3 | 244 ± 53 | 253 ± 59 | 1.3 ± 0.1 | 0.49 ± 0.08 | no detectable agonist activity | – | – | –
O=C1C[C@@H]2CCCN2C(=O)N1CCCCN1CCN(c2cccc3sccc23)CC1 [Example 4, 2-[4-(4-Benzo[b]thiophen-4-yl-piperazin-1-yl)-butyl]-tetrahydro-pyrrolo[1,2-c]pyrimidine-1,3-dione oxalate] | 0.195 | 228 | 350 ± 40 | 48 ± 5 | 0.8 ± 0.2 | 16 ± 1 | 169 ± 14 | 77 ± 2 | 1.1 ± 0.3 | 2.14 ± 0.88 | – | – | – | –
O=C1C[C@@H]2C[C@H](F)CN2C(=O)N1CCCCN1CCN(c2nsc3ccccc23)CC1 [Example 9, 2-[4-(4-Benzo[d]isothiazol-3-yl-piperazin-1-yl)-butyl]-6-fluoro-tetrahydro-pyrrolo[1,2-c]pyrimidine-1,3-dione oxalate] | 0.89 | 833 | 415 ± 69 | 40 ± 6 | 1.8 ± 0.1 | 14 ± 2 | 178 ± 23 | 164 ± 43 | 1.4 ± 0.3 | 0.4 ± 0.13 | no detectable agonist activity | – | – | –
O=C1C[C@@H]2C[C@H]3C[C@H]3N2C(=O)N1CCCCN1CCN(c2nsc3ccccc23)CC1 [Example 11, 3-[4-(4-Benzo[d]isothiazol-3-yl-piperazin-1-yl)-butyl]-hexahydro-1b,3-diaza-cyclopropa[a]indene-2,4-dione oxalate] | – | – | 412 ± 44 | 41 ± 5 | 1.3 ± 0.1 | 8 ± 5 | 98 ± 63 | 94 ± 52 | 2 ± 0.2 | – | no detectable agonist activity | 0.29 | 1280 | 0.09 ± 0.16
